Experimental data taken from ChEMBL document CHEMBL3352541, “1-Phenylsulfinyl-3-(pyridin-3-yl)naphthalen-2-ols: a new class of potent and selective aldosterone synthase inhibitors” (Eur J Med Chem, 2015).

What was measured:
[1] = molecular target: T1, Cytochrome P450 11B1, mitochondrial (Homo sapiens, UniProt P15538)
T1 sequence (P15538 whole entry): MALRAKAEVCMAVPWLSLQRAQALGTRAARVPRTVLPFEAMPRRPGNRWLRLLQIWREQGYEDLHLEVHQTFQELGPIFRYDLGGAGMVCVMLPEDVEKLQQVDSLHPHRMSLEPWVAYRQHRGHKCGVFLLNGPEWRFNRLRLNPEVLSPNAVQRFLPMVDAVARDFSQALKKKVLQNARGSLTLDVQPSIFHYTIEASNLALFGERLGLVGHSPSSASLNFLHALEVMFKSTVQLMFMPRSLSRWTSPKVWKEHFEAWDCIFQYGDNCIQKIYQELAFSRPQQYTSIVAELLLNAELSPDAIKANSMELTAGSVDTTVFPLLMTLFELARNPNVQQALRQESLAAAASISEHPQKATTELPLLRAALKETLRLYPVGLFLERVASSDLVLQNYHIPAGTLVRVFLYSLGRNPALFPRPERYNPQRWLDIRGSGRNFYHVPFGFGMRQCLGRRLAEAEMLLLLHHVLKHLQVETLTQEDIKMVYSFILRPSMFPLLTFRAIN
Description: Inhibition of human CYP11B1 expressed in hamster V79MZ cells using [3H]-11-deoxycorticosterone as substrate after 1 hr by HPLC analysis

[2] = molecular target: T2, CYP17 (Homo sapiens, UniProt P05093); assay: Inhibition of human recombinant CYP17 expressed in Escherichia coli using progesterone as substrate at 2 uM; conditions: probe progesterone
T2 sequence (P05093 whole entry): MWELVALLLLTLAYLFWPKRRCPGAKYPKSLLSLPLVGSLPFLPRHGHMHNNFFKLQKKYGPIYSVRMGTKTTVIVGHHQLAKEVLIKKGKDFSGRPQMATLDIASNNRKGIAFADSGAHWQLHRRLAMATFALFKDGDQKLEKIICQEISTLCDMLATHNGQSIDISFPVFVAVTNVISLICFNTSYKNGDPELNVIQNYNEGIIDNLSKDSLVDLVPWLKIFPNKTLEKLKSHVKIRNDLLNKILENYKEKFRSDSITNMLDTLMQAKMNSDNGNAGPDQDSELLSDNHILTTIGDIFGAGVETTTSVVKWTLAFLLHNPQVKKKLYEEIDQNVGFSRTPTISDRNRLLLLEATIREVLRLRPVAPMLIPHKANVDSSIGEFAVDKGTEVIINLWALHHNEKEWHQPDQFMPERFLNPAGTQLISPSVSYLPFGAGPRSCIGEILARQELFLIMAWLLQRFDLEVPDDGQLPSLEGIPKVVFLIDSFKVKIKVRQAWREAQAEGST

[3] = tested on: V79MZ; assay: Selectivity ratio of IC50 for human CYP11B1 expressed in hamster V79MZ cells to IC50 for human CYP11B2 expressed in hamster V79MZ cells; format: cell-based
[4] = molecular target: T3, CYP19 (aromatase) (Homo sapiens, UniProt P11511); assay: Inhibition of human recombinant CYP19 using [1beta3H]androstenedione as substrate at 500 nM; conditions: recombinant human CYP19, probe [1beta3H]androstenedione
T3 sequence (P11511 whole entry): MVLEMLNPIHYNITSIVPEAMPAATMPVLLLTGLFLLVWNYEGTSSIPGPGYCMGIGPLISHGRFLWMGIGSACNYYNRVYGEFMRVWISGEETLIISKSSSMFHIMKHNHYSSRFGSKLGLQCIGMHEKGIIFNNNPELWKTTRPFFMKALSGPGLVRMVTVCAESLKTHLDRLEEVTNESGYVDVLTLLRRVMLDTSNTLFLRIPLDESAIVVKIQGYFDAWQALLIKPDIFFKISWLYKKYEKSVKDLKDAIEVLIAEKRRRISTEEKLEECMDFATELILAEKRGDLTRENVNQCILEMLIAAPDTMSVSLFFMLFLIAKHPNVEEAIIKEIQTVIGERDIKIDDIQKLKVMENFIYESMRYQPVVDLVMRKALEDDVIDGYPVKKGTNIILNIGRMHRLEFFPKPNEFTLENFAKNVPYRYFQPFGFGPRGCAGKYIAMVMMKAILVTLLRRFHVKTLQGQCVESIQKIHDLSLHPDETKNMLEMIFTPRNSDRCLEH

[5] = molecular target: T4, Cytochrome P450 11B2, mitochondrial (Homo sapiens, UniProt P19099); format: cell-based; conditions: V79MZ, 1 h
T4 sequence (P19099 whole entry): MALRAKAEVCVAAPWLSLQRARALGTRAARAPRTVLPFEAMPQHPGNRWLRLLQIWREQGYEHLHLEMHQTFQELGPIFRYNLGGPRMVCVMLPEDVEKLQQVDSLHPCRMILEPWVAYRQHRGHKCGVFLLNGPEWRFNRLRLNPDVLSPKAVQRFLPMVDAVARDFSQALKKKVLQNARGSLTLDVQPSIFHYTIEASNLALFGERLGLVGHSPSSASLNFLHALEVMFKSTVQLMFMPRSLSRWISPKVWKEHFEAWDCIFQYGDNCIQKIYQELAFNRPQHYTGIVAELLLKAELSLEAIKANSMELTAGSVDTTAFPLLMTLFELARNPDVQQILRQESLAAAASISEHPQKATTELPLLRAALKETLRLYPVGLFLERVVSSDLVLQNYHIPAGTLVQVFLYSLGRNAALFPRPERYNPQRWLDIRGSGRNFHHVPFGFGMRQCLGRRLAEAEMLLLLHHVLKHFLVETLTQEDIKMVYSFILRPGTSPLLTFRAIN

[6] = molecular target: T4, Cytochrome P450 11B2, mitochondrial
Description: Inhibition of human CYP11B2 expressed in hamster V79MZ cells using [3H]-11-deoxycorticosterone as substrate after 1 hr by HPLC analysis

[7] = AUC in Wistar rat at 1 mg/kg, po by HPLC-MS/MS analysis; format: ADME, organism-based; design: dose 1 mg/kg, route oral; conditions: plasma
[8] = Terminal half life in Wistar rat at 1 mg/kg, po by HPLC-MS/MS analysis; format: ADME, organism-based; design: dose 1 mg/kg, route oral; conditions: in vivo, read-out: beta t1/2 (converted)
[9] = Terminal half life in Wistar rat at 1 mg/kg, iv by HPLC-MS/MS analysis; format: ADME, organism-based; design: dose 1 mg/kg, route intravenous; conditions: in vivo, read-out: beta t1/2 (converted)
[10] = Oral bioavailability in Wistar rat at 1 mg/kg by HPLC-MS/MS analysis; format: ADME, organism-based; conditions: in vivo
[11] = AUC in Wistar rat at 1 mg/kg, iv by HPLC-MS/MS analysis; format: ADME, organism-based; design: dose 1 mg/kg, route intravenous; conditions: plasma
[12] = Cmax in Wistar rat at 1 mg/kg, po after 0.5 hrs by HPLC-MS/MS analysis; format: ADME, organism-based; design: dose 1 mg/kg, route oral; conditions: in vivo

SMILES	IC50 [1] [µM]	inhibition at 2 µM [2] [%]	Ratio IC50 [3]	inhibition at 0.5 µM [4] [%]	inhibition [5] [%]	IC50 [6] [µM]	AUC [7] [ng·h/mL]	half-life [8] [h]	half-life [9] [h]	bioavailability [10] [%]	AUC [11] [ng·h/mL]	Cmax [12] [ng/mL]
[O-][S+](c1cc(C(F)(F)F)cc(C(F)(F)F)c1)c1c(O)c(-c2cccnc2)cc2ccccc12 (stereo not given)	9.35	< 5	283	< 5	78	0.033	–	–	–	–	–	–
[O-][S+](c1cccc(Cl)c1)c1c(O)c(-c2cccnc2)cc2ccccc12 (stereo not given)	4.8	< 5	80	< 5	90	0.06	–	–	–	–	–	–
c1ccc(Sc2cc(-c3cccnc3)cc3ccccc23)cc1	–	–	–	–	15	–	–	–	–	–	–	–
N#Cc1ccc([S+]([O-])c2c(O)c(-c3cccnc3)cc3ccccc23)cc1 (stereo not given)	–	–	–	–	47	–	–	–	–	–	–	–
[O-][S+](c1cccc(C(F)(F)F)c1)c1c(O)c(-c2cccnc2)cc2ccccc12 (stereo not given)	6.67	< 5	155	< 5	88	0.043	–	–	–	–	–	–
COc1cccc([S+]([O-])c2c(O)c(-c3cccnc3)cc3ccccc23)c1 (stereo not given)	7.31	< 5	271	< 5	87	0.027	–	–	–	–	–	–
COc1ccccc1[S+]([O-])c1c(O)c(-c2cccnc2)cc2ccccc12 (stereo not given)	1.1	< 5	17	< 5	86	0.064	–	–	–	–	–	–
Oc1c(-c2cccnc2)cc2ccccc2c1Sc1ccccc1	–	–	–	–	22	–	–	–	–	–	–	–
[O-][S+](c1cccc(OC(F)(F)F)c1)c1c(O)c(-c2cccnc2)cc2ccccc12 (stereo not given)	5.81	< 5	415	< 5	83	0.014	335	7	4	19	1780	40.4
[O-][S+](c1ccccc1)c1c(O)c(-c2cccnc2)cc2ccccc12 (stereo not given)	6.71	< 5	203	< 5	85	0.033	–	–	–	–	–	–
[O-][S+](c1ccc(OC(F)(F)F)cc1)c1c(O)c(-c2cccnc2)cc2ccccc12 (stereo not given)	7.43	< 5	232	< 5	88	0.032	–	–	–	–	–	–
COc1cccc(Sc2c(O)c(-c3cccnc3)cc3ccccc23)c1	–	–	–	–	20	–	–	–	–	–	–	–
[O-][S+](c1ccc(F)cc1)c1c(O)c(-c2cccnc2)cc2ccccc12 (stereo not given)	5.55	< 5	168	< 5	84	0.033	–	–	–	–	–	–
O=S(=O)(c1ccccc1)c1cc2ccccc2cc1-c1cccnc1	–	–	–	–	16	–	–	–	–	–	–	–
[O-][S+](c1ccccc1OC(F)(F)F)c1c(O)c(-c2cccnc2)cc2ccccc12 (stereo not given)	4.71	< 5	84	< 5	77	0.056	–	–	–	–	–	–
[O-][S+](c1cccc(F)c1)c1c(O)c(-c2cccnc2)cc2ccccc12 (stereo not given)	6.55	< 5	168	< 5	85	0.039	–	–	–	–	–	–
COc1ccc(Sc2c(O)c(-c3cccnc3)cc3ccccc23)cc1	–	–	–	–	22	–	–	–	–	–	–	–
[O-][S+](c1cc(Cl)cc(Cl)c1)c1c(O)c(-c2cccnc2)cc2ccccc12 (stereo not given)	4.72	< 5	100	< 5	87	0.047	–	–	–	–	–	–
[O-][S+](c1cccs1)c1c(O)c(-c2cccnc2)cc2ccccc12 (stereo not given)	6.16	< 5	32	< 5	79	0.192	–	–	–	–	–	–
[O-][S+](c1ccc(Cl)cc1)c1c(O)c(-c2cccnc2)cc2ccccc12 (stereo not given)	8.95	< 5	407	< 5	84	0.022	–	–	–	–	–	–
N#Cc1cccc([S+]([O-])c2c(O)c(-c3cccnc3)cc3ccccc23)c1 (stereo not given)	8.55	< 5	186	< 5	84	0.046	–	–	–	–	–	–
[O-][S+](c1ccc(Cl)c(Cl)c1)c1c(O)c(-c2cccnc2)cc2ccccc12 (stereo not given)	8.33	< 5	253	< 5	90	0.033	–	–	–	–	–	–
COc1ccc([S+]([O-])c2c(O)c(-c3cccnc3)cc3ccccc23)cc1 (stereo not given)	4.2	< 5	87	< 5	80	0.048	–	–	–	–	–	–
COc1ccccc1Sc1c(O)c(-c2cccnc2)cc2ccccc12	–	–	–	–	18	–	–	–	–	–	–	–
[O-][S+](c1ccccc1C(F)(F)F)c1c(O)c(-c2cccnc2)cc2ccccc12 (stereo not given)	5.08	< 5	96	< 5	86	0.053	–	–	–	–	–	–
[O-][S+](c1ccccc1Cl)c1c(O)c(-c2cccnc2)cc2ccccc12 (stereo not given)	4.49	< 5	204	< 5	90	0.022	–	–	–	–	–	–
[O-][S+](c1ccc(F)c(Cl)c1)c1c(O)c(-c2cccnc2)cc2ccccc12 (stereo not given)	6.53	< 5	123	< 5	91	0.053	–	–	–	–	–	–
[O-][S+](c1ccccc1)c1cc(-c2cccnc2)cc2ccccc12 (stereo not given)	–	–	–	–	33	–	–	–	–	–	–	–
[O-][S+](c1ccc(C(F)(F)F)cc1)c1c(O)c(-c2cccnc2)cc2ccccc12 (stereo not given)	6.19	< 5	248	< 5	81	0.025	–	–	–	–	–	–
